Entries after “also recorded” stand apart in the source; their conditions may differ.
These substances were tested on target microorganisms (assay: Screen of synthesized peptides for binding to target microorganisms (targeting peptides, Tables 2 and 3)). Conditions: microorganism(s) the targeting peptide was identified as binding to (Table 3).
Experimental: Once noted, these peptides were batch synthesized on a multiplex peptide synthesizer, yielding 5-10 mg of each peptide that could readily be screened for biological activity (e.g., binding activity and/or antimicrobial activity.
Other suitable targeting peptides include the peptides that have been identified as binding to particular target organisms as shown in Table 3 and/or Table 4.

Substance | Target(s)
1T-1 (YVNYNQSFNSGW; synthetic novel tartgeting peptide IT-1) | S. mutans
1T-2 (NIFEYFLE; synthetic novel tartgeting peptide IT-2) | S. gordonii; also recorded: S. mitis; also recorded: S. oralis; also recorded: V. atypica; also recorded: Lactobacillus casei; also recorded: Saliva-derived biofilms; also recorded: S. mutans; also recorded: S. sanguinis
1T-3 (VLGIAGGLDAYGELVGGN; synthetic novel tartgeting peptide IT-3) | S. mutans; also recorded: S. gordonii
1T-4 (LDAYGELVGGN; synthetic novel tartgeting peptide IT-4) | S. mutans; also recorded: S. gordonii; also recorded: S. sanguinis; also recorded: S. oralis; also recorded: V. atypica; also recorded: L. casei
1T-5 (LGPIAGAAIGWDLGAISGAGLGWANFCQ; synthetic novel tartgeting peptide IT-5) | S. mutans; also recorded: S. sanguinis
1T-6 (KFINGVLSQFVLERK; synthetic novel tartgeting peptide IT-6) | S. mutans
1T-7 (SQRIIEPVKSPQPYPGFSVS; synthetic novel tartgeting peptide IT-7) | Myxococcus xanthus
1T-8 (FSVAACGEQRAVTFVLLIEDLI; synthetic novel tartgeting peptide IT-8) | M. xanthus
1T-9 (WAWAESPRCVSTRSNIHALAFRVEVAALT; synthetic novel tartgeting peptide IT-9) | M. xanthus
1T-10 (SPAGLPGDGDEA; synthetic novel tartgeting peptide IT-10) | M. xanthus
1T-11 (RISE; synthetic novel tartgeting peptide IT-11) | S. mutans; also recorded: S. epidermidis; also recorded: P. aeruginosa
1T-12 (FGNIFKGLKDVIETIVKWTAAK; synthetic novel tartgeting peptide IT-12) | Corynebacterium; also recorded: xerosis; also recorded: striatum; also recorded: S. epidermidis; also recorded: S. mutans
1T-13 (FRSPCINNNSLQPPGVYPAR; synthetic novel tartgeting peptide IT-13) | S. aureus; also recorded: S. epidermidis; also recorded: P. aeruginosa
1T-14 (ALAGLAGLISGK; synthetic novel tartgeting peptide IT-14) | S. mutans; also recorded: S. aureus; also recorded: S. epidermidis; also recorded: C. xerosis
1T-15 (DVILRVEAQ; synthetic novel tartgeting peptide IT-15) | S. mutans
1T-16 (IDMR; synthetic novel tartgeting peptide IT-16) | P. aeruginosa
1T-17 (NNAIVYIS; synthetic novel tartgeting peptide IT-17) | S. mutans
1T-18 (YSKTLHFAD; synthetic novel tartgeting peptide IT-18) | S. aureus; also recorded: S. epidermidis; also recorded: C. striatum; also recorded: P. aeruginosa
1T-19 (PGAFRNPQMPRG; synthetic novel tartgeting peptide IT-19) | S. aureus; also recorded: S. epidermidis; also recorded: P. aeruginosa
1T-20 (PALVDLSNKEAVWAVLDDHS; synthetic novel tartgeting peptide IT-20) | S. mutans; also recorded: P. aeruginosa
1T-21 (YVEEAVRAALKKEARISTEDTPVNLPSFDC; synthetic novel tartgeting peptide IT-21) | S. mutans; also recorded: P. aeruginosa
1T-22 (VPLDDGTRRPEVARNRDKDRED; synthetic novel tartgeting peptide IT-22) | S. epidermidis; also recorded: P. aeruginosa
1T-23 (PALVDLSNKEAVWAVLDDHS; synthetic novel tartgeting peptide IT-23) | S. mutans; also recorded: P. aeruginosa
1T-24 (EEAEEKLAEVSQAVKRLVR; synthetic novel tartgeting peptide IT-24) | P. aeruginosa
1T-25 (VGLDVSVLVLFFGLQLLSVLLGAMIR; synthetic novel tartgeting peptide IT-25) | S. aureus; also recorded: S. epidermidis; also recorded: C. xerosis; also recorded: C. striatum; also recorded: P. aeruginosa
1T-26 (LTILPTTFFAIIVPILAVAFIAYSGFKIKGIVEHKDQW; synthetic novel tartgeting peptide IT-26) | jeikeium; also recorded: C. xerosis; also recorded: C. striatum; also recorded: P. aeruginosa; also recorded: S. mutans; also recorded: S. aureus; also recorded: S. epidermidis; also recorded: Corynebacterium

Substance | Target(s)
1T-27 (ALFVSLEQFLVVVAKSVFALCHSGTLS; synthetic novel tartgeting peptide IT-27) | S. mutans; also recorded: S. aureus; also recorded: S. epidermidis; also recorded: C. jeikeium; also recorded: C. xerosis; also recorded: C. striatum; also recorded: P. aeruginosa
1T-28 (VSRDEAMEFIDREWTTLQPAGKSHA; synthetic novel tartgeting peptide IT-28) | P. aeruginosa
1T-29 (GSVIKKRRKRMSKKKHRKMLRRTRVQRRKLGK; synthetic novel tartgeting peptide IT-29) | S. mutans; also recorded: S. aureus; also recorded: S. epidermidis; also recorded: C. jeikeium; also recorded: C. xerosis; also recorded: C. striatum; also recorded: P. aeruginosa
1T-30 (GKAKPYQVRQVLRAVDKLETRRKKGGR; synthetic novel tartgeting peptide IT-30) | S. aureus; also recorded: S. epidermidis; also recorded: C. xerosis; also recorded: C. striatum; also recorded: P. aeruginosa
1T-31 (NATGTDIGEVTLTLGRFS; synthetic novel tartgeting peptide IT-31) | S. mutans; also recorded: P. aeruginosa
1T-32 (VSFLAGWLCLGLAAWRLGNA; synthetic novel tartgeting peptide IT-32) | S. mutans
1T-33 (VRTLTILVIFIFNYLKSISYKLKQPFENNLAQSMISI; synthetic novel tartgeting peptide IT-33) | S. aureus; also recorded: S. epidermidis; also recorded: C. jeikeium; also recorded: C. xerosis; also recorded: C. striatum; also recorded: P. aeruginosa
1T-34 (AFWLNILLTLLGYIPGIVHAVYIIAKR; synthetic novel tartgeting peptide IT-34) | S. aureus; also recorded: S. epidermidis; also recorded: C. jeikeium; also recorded: C. xerosis; also recorded: C. striatum; also recorded: P. aeruginosa
1T-35 (EICLTLVFPIRGSYSEAAKFPVPIHIVEDGTVELPK; synthetic novel tartgeting peptide IT-35) | P. aeruginosa
1T-36 (VYRHLRFIDGKLVEIRLERK; synthetic novel tartgeting peptide IT-36) | S. aureus; also recorded: S. epidermidis; also recorded: C. jeikeium; also recorded: C. xerosis; also recorded: C. striatum; also recorded: P. aeruginosa
1T-37 (YIVGALVILAVAGLIYSMLRKA; synthetic novel tartgeting peptide IT-37) | S. mutans; also recorded: S. aereus; also recorded: S. epidermidis; also recorded: C. jeikeium; also recorded: C. xerosis; also recorded: C. striatum; also recorded: P. aeruginosa
1T-38 (VMFVLTRGRSPRPMIPAY; synthetic novel tartgeting peptide IT-38) | S. mutans; also recorded: S. aereus; also recorded: S. epidermidis; also recorded: C. jeikeium; also recorded: C. xerosis; also recorded: C. striatum; also recorded: P. aeruginosa
1T-39 (FGFCVWMYQLLAGPPGPPA; synthetic novel tartgeting peptide IT-39) | S. mutans; also recorded: P. aeruginosa
1T-40 (QRVSLWSEVEHEFR; synthetic novel tartgeting peptide IT-40) | S. mutans; also recorded: P. aeruginosa
1T-41 (KRGSKIVIAIAVVLIVLAGVWVW; synthetic novel tartgeting peptide IT-41) | S. mutans; also recorded: S. aureus; also recorded: S. epidermidis; also recorded: C. jeikeium; also recorded: C. striatum; also recorded: P. aeruginosa
1T-42 (TVLDWLSLALATGLFVYLLVALLRADRA; synthetic novel tartgeting peptide IT-42) | S. aureus; also recorded: S. epidermidis; also recorded: C. xerosis; also recorded: C. striatum; also recorded: P. aeruginosa
1T-43 (DRCLSVLSWSPPKVSPLI; synthetic novel tartgeting peptide IT-43) | C. jeikium; also recorded: P. aeruginosa
1T-44 (DPALADFAAGMRAQVRT; synthetic novel tartgeting peptide IT-44) | S. mutans; also recorded: S. aureus; also recorded: S. epidermidis; also recorded: C. jeikeium; also recorded: C. striatum; also recorded: P. aeruginosa
1T-45 (WTKPSFTDLRLGFEVTLYFANR; synthetic novel tartgeting peptide IT-45) | S. aureus; also recorded: S. epidermidis; also recorded: C. striatum; also recorded: P. aeruginosa
1T-46 (FSFKQRVMFRKEVERLR; synthetic novel tartgeting peptide IT-46) | S. aureus; also recorded: S. epidermidis; also recorded: C. jeikeium; also recorded: C. xerosis; also recorded: C. striatum; also recorded: P. aeruginosa
1T-47 (VIKISVPGQVQMLIP; synthetic novel tartgeting peptide IT-47) | S. mutans; also recorded: S. epidermidis; also recorded: P. aeruginosa
1T-48 (KLQVHHGRATHTLLLQPPLCAPGTIR; synthetic novel tartgeting peptide IT-48) | S. aureus; also recorded: S. epidermidis; also recorded: C. jeikeium; also recorded: C. xerosis; also recorded: C. striatum; also recorded: P. aeruginosa
1T-49 (SLVRIHDQQPWVTRGAFIDAARTCS; synthetic novel tartgeting peptide IT-49) | S. aureus; also recorded: S. epidermidis; also recorded: C. jeikeium; also recorded: P. aeruginosa
1T-50 (HSDEPIPNILFKSDSVH; synthetic novel tartgeting peptide IT-50) | P. aeruginosa
1T-51 (GKPKRMPAEFIDGYGQALLAGA; synthetic novel tartgeting peptide IT-51) | S. aureus; also recorded: P. aeruginosa
